Experimental data: the supplement of paper PMC4862054

How the values were obtained:
Assay in all cases: normalised response (% of control), CellTiter-Glo; higher = more viable cells (100 = DMSO, 0 = benzethonium chloride kill control)
Conditions in all cases: incubation time: 72 h
BT-474 = system: BT-474
Summary of the method: (§1)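 Breast cancer cell lines were exposed for 72 h in 384-well plates to compound at 5 concentrations, 10-fold apart, covering a 10,000-fold range fixed for each compound. Plates were read for CellTox Green fluorescence and CellTiter-Glo luminescence and normalised to 0.1 % DMSO (100) and a positive kill control (0). Each value is the normalised signal at one concentration of the series.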

BT-549 = system: BT-549
Summary of the method: as §1

CAL-120 = system: CAL-120
Summary of the method: as §1

CAL-148 = system: CAL-148
Summary of the method: as §1

CAL-51 = system: CAL-51
Summary of the method: as §1

CAL-85-1 = system: CAL-85-1
Summary of the method: as §1

DU-4475 = system: DU-4475
Summary of the method: as §1

HCC1143 = system: HCC1143
Summary of the method: as §1

HCC1599 = system: HCC1599
Summary of the method: as §1

HCC1937 = system: HCC1937
Summary of the method: as §1

HDQ-P1 = system: HDQ-P1
Summary of the method: as §1

Hs578T = system: Hs578T
Summary of the method: as §1

MCF-10A = system: MCF-10A
Summary of the method: as §1

MDA-MB-231 = system: MDA-MB-231
Summary of the method: as §1

MDA-MB-436 = system: MDA-MB-436
Summary of the method: as §1

MDA-MB-453 = system: MDA-MB-453
Summary of the method: as §1

MDA-MB-468 = system: MDA-MB-468
Summary of the method: as §1

MFM-223 = system: MFM-223
Summary of the method: as §1

| Structure (SMILES) | normalised response (BT-474) | normalised response (BT-549) | normalised response (CAL-120) | normalised response (CAL-148) | normalised response (CAL-51) | normalised response (CAL-85-1) | normalised response (DU-4475) | normalised response (HCC1143) | normalised response (HCC1599) | normalised response (HCC1937) | normalised response (HDQ-P1) | normalised response (Hs578T) | normalised response (MCF-10A) | normalised response (MDA-MB-231) | normalised response (MDA-MB-436) | normalised response (MDA-MB-453) | normalised response (MDA-MB-468) | normalised response (MFM-223) |
| --- | --- | --- | --- | --- | --- | --- | --- | --- | --- | --- | --- | --- | --- | --- | --- | --- | --- | --- |
| O=C(Nc1c[nH]nc1-c1nc2ccc(CN3CCOCC3)cc2[nH]1)NC1CC1 [AT9283] (1 nM) | 95.7% | 97.3% | 93.4% | 94.5% | 103% | 98.7% | 102% | 102% | 101% | 102% | 103% | 98.7% | 101% | 102% | 103% | 98.6% | 97.5% | 103% |
| CCC/C=C/C=C/C(=O)O[C@H]1/C(=C/C(=O)OC)C[C@H]2C[C@H]([C@@H](C)O)OC(=O)C[C@H](O)C[C@@H]3C[C@H](OC(C)=O)C(C)(C)[C@](O)(C[C@@H]4C/C(=C/C(=O)OC)C[C@H](/C=C/C(C)(C)[C@]1(O)O2)O4)O3 [Bryostatin 1] (0.1 nM) | 103% | 95.8% | 91.1% | 115% | 119% | 98.2% | 97% | 101% | 116% | 99% | 91.5% | 95.5% | 109% | 103% | 107% | 97.7% | 94.3% | 105% |
| CO[C@@H](C(=O)N1Cc2[nH]nc(NC(=O)c3ccc(N4CCN(C)CC4)cc3)c2C1)c1ccccc1 [Danusertib] (10 nM) | 102% | 99.7% | 93.4% | 95.7% | 113% | 94.9% | 102% | 95.7% | 98.1% | 93.8% | 97.9% | 99.2% | 103% | 96.6% | 105% | 103% | 87.1% | 103% |
| Cc1nc(Nc2ncc(C(=O)Nc3c(C)cccc3Cl)s2)cc(N2CCN(CCO)CC2)n1 [Dasatinib] (1 nM) | 93.5% | 103% | 98.9% | 93.7% | 106% | 101% | 96.4% | 97.9% | 115% | 99.6% | 93.5% | 103% | 90% | 87.9% | 94.5% | 101% | 95.6% | 97.7% |
| O=S(=O)(c1cccc2cnccc12)N1CCCNCC1 [Fasudil] (50 nM) | 97.8% | 101% | 94.3% | 102% | 117% | 97% | 104% | 102% | 98.5% | 99.4% | 96.6% | 94.9% | 104% | 99.9% | 106% | 104% | 101% | 99.3% |
| Cc1cccc(-c2nn3c(c2-c2ccnc4ccc(C(N)=O)cc24)CCC3)n1 [Galunisertib] (1 nM) | 109% | 102% | 101% | 123% | 92.5% | 99.5% | 107% | 111% | 103% | 99% | 102% | 103% | 102% | 105% | 108% | 115% | 104% | 107% |
| C[C@]12O[C@H](C[C@]1(O)CO)n1c3ccccc3c3c4c(c5c6ccccc6n2c5c31)CNC4=O [Lestaurtinib] (1 nM) | 104% | 97.3% | 93.9% | 100% | 133% | 104% | 97.7% | 102% | 90.8% | 98.9% | 95.4% | 101% | 96.6% | 99.8% | 100% | 94.3% | 102% | 101% |
| Nc1ccccc1NC(=O)c1ccc(CNc2nccc(-c3cccnc3)n2)cc1 [Mocetinostat] (10 nM) | 98.4% | 98.3% | 97% | 98.1% | 129% | 95.7% | 105% | 97.6% | 94.3% | 104% | 110% | 103% | 106% | 103% | 99.1% | 105% | 101% | 100% |
| Cc1ccc(Nc2nccc(N(C)c3ccc4c(C)n(C)nc4c3)n2)cc1S(N)(=O)=O [Pazopanib] (10 nM) | 98.2% | 93.9% | 91.9% | 104% | 82.8% | 100% | 107% | 102% | 100% | 100% | 97.2% | 94.8% | 97.2% | 98.2% | 107% | 109% | 104% | 98% |
| O=C(NC[C@H](O)CO)c1ccncc1Nc1ccc(I)cc1F [Pimasertib] (10 nM) | 102% | 91.4% | 103% | 90.8% | 124% | 87.8% | 83.9% | 94.2% | 105% | 102% | 81.1% | 92.2% | 66.6% | 97.6% | 107% | 99.7% | 91.9% | 99.2% |
| c1cc(CN2CCCNCCNCCCNCC2)ccc1CN1CCCNCCNCCCNCC1 [Plerixafor] (10 nM) | 97.2% | 99.6% | 96.2% | 91.1% | 82.7% | 93.1% | 91.1% | 105% | 95.2% | 102% | 103% | 97.7% | 81.5% | 99% | 97.3% | 81.9% | 94.1% | 88.6% |
